From patent EP1948196B1, “USE OF TETRAORGANOSILICON COMPOUNDS” (Salama, Zoser B., priority 2005, dated 2007)
Numbered stars: 1 amine (or outer) side, 2 acyl side, 3 side chain; on linkers, the order of the positions; unused ones are H or OH. Bridge positions count the residues as written; N and C are the ends. Peptide text beside a SMILES is read from it. I, II: the chains in the order shown. OSi(nPr)2O = CCC[Si](CCC)(O[*:1])O[*:2]

Key:
Hepatitis A-Viren = assay: Antiviral effect; details: in particular as vesicles holding antisense constructs
Plasmozyten = assay: Effect against plasmocytes

With `CCC[Si](CCC)(OC(=O)[C@H](Cc1ccccc1)NC(=O)[C@H](Cc1ccccc1)NC(=O)[C@H](Cc1ccccc1)NC(=O)[C@H](Cc1ccccc1)NC(=O)[C@H](Cc1ccccc1)NC(=O)[C@H](Cc1ccccc1)NC(=O)[C@@H](N)Cc1ccccc1)OC(=O)[C@H](Cc1ccccc1)NC(=O)[C@H](Cc1ccccc1)NC(=O)[C@H](Cc1ccccc1)NC(=O)[C@H](Cc1ccccc1)NC(=O)[C@H](Cc1ccccc1)NC(=O)[C@H](Cc1ccccc1)NC(=O)[C@@H](N)Cc1ccccc1` [Dipropyl bis(heptaphenylalanyl)silylester] (I: H-FFFFFFF / II: H-FFFFFFF; linker I:C-II:C via OSi(nPr)2O) the “Wirkung gegen Hepatitis A-Viren” value (Hepatitis A-Viren) was “zeigen eine Wirkung” and the “Wirkung gegen Plasmozyten” value (Plasmozyten) was “zeigen eine Wirkung”.
